Here are results for one compound from US6335368B1, “Use of alverine for reducing wrinkles” (Societe L'Oreal S.A., priority 1999, dated 2002).

This assay has as its system phrenic nerve/diaphragm isolated from rat (striated muscle). Nature of the assay: Nerve/muscle junction (motor plate) model: isolated rat phrenic nerve/diaphragm preparation. The assay is classed as cell-based. The following applies: for inhibition at 100 µM: Rattus norvegicus. The method, then:
Activity of Alverine in a model of nerve/muscle junction (motor plate) measured in a preparation of phrenic nerve/diaphragm isolated from rat (striated muscle) (Pollard B. J. et al, Br. J. Anaesth., 1988, 61, 419-424). The phrenic nerve and the diaphragm are carefully isolated and placed in a 50 ml tank filled with survival fluid (Krebs-Henseleit fluid) maintained at a temperature of 37° C. and oxygenated using an oxygen/CO2 mixture (95/5). The variations in tension of the diaphragm are recorded with an initial preload of several grams. After a relaxation period of 30 min., the diaphragm is stimulated indirectly via the phrenic nerve. On each preparation, the effect of the test products was evaluated in a first stage as regards the contractions induced by indirect stimulation via stimulation of the phrenic nerve (0.1 to 0.5 volts, 0.3 ms, 0.1 Hz) at increasing and cumulative concentrations from 10^−9 M to 10^−4 M. In the event of an effect at the end of the test, the diaphragm is stimulated directly in order to determine whether or not the inhibition of the neurotransmission results from a pre-junctional blockage or a post-junctional blockage.

Like-named read-outs stand apart in the source and are kept apart here.

What is called inhibition is the share of the control response that was lost under treatment. For the compound `CCN(CCCc1ccccc1)CCCc1ccccc1` [Alverine, di(phenylpropyl)ethylamine], the “inhibition of contractions induced by the indirect stimulations” value (10^−4 M) is “completely inhibits”. The inhibition at 100 µM is, setting by setting: (10^−4 M Alverine, contractions induced by indirect stimulation via phrenic nerve, 1st study, read-out: % of inhibition, indirect stimulation) 100%; (10^−4 M Alverine, contractions induced by indirect stimulation via phrenic nerve, 2nd study, read-out: % of inhibition, indirect stimulation) 100%; (10^−4 M Alverine, direct stimulation of the diaphragm, 1st study, read-out: % of inhibition, direct stimulation) 61.4%; (10^−4 M Alverine, direct stimulation of the diaphragm, 2nd study, read-out: % of inhibition, direct stimulation) 42.2%; (10^−4 M, read-out: inhibition of contractions induced by the direct stimulations) roughly 50%.
